We go through 36 compounds from ChEMBL document CHEMBL1130566, “A nonpeptidic agonist ligand of the human C5a receptor: Synthesis, binding affinity optimization and functional characterization” (Bioorg Med Chem Lett, 1997).

The target in assay [1] is T1, C5a anaphylatoxin chemotactic receptor 1 (Homo sapiens, UniProt P21730).
T1 sequence (P21730 whole entry): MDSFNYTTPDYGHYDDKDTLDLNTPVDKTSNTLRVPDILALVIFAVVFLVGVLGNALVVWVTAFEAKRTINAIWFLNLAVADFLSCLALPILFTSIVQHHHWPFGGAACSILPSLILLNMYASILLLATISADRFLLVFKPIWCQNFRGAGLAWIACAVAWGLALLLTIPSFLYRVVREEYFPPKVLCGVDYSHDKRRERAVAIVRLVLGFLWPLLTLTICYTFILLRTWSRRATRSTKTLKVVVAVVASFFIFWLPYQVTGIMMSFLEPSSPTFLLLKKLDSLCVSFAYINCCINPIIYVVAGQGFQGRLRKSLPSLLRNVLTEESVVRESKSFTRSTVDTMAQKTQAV
Description: Tested for its ability to compete with [125I]C5a for binding to C5a anaphylatoxin chemotactic receptor of human neutrophil membrane preparations.

For assay [2], the target named is T1, C5a anaphylatoxin chemotactic receptor 1. The assay can be described thus: Tested for the ability to compete with [125I]-CO13 ([125I]-Y-F-K-A-Cha-G-L-dF-R) for binding to C5a anaphylatoxin chemotactic receptor from human neutrophil membrane preparations.
For assay [3], the target named is T2, C5a anaphylatoxin chemotactic receptor 1 (Homo sapiens) (UniProt P21730).
T2 sequence (whole entry): T1 sequence (P21730 whole entry)
The assay can be described thus: Inhibition of [125I]C5a binding to C5a anaphylatoxin chemotactic receptor of human neutrophil membrane preparations at 30 uM.

Assay [4] concerns the target T2, C5a anaphylatoxin chemotactic receptor 1 (Homo sapiens). Description: Tested for […] to evaluate its ability to block C5a induced myeloperoxide (MPO release from neutrophils (for antagonists) or induce MPO release (for agonists).
Assay [5] shares this target. The assay can be described thus: Tested for the ability to compete with [125I]C5a for binding to human C5a anaphylatoxin chemotactic receptor of human neutrophil membrane preparations at 30 uM concentration.
Assay [6] has the same target. Description: Tested for the ability to compete with [125I]-CO13 [125I]-Y-F-K-A-Cha-G-L-dF-R) for binding to C5a anaphylatoxin chemotactic receptor of human neutrophil membrane preparations at 30 uM concentration.
The target is the same in assay [7]. Description: Tested for the ability to compete with [125I]-CO13 [125I]-Y-F-K-A-Cha-G-L-dF-R) for binding to C5a anaphylatoxin chemotactic receptor of human neutrophil membrane preparations. The settings on record: concentration not given here.
The target of assay [8] is T1, C5a anaphylatoxin chemotactic receptor 1. The assay can be described thus: Tested for the its ability to compete with [125I]-CO13 [125I]-Y-F-K-A-Cha-G-L-dF-R) for binding to C5a anaphylatoxin chemotactic receptor of human neutrophil membrane preparations.

As for `N=C(N)NCCC[C@H]1NC(=O)N([C@H](Cc2c[nH]c3ccccc23)C(=O)N2CCC3(CCc4ccccc43)CC2)C1=O`, the IC50 was found to be 5000 nM in assay [1] and 450 nM in assay [2].

For the compound `N=C(N)NCCC[C@H]1NC(=O)N([C@H](CC2CCC(C3CCCCC3)CC2)C(=O)N2CCC3(CCc4ccccc43)CC2)C1=O` (stereo partly specified), the IC50 in assay [2] is 5000 nM. In assay [3], this compound came in with an inhibition of 26%.

`Cc1ccc(N2CCN(C(=O)[C@@H](CC3CCCCC3)N3C(=O)N[C@H](CCCN=C(N)N)C3=O)CC2)c(C)c1` gave a Release in assay [4] of 90%. The figures for the IC50 in assay [1] and in assay [2] were 300 nM and 60 nM, respectively.

In turn, `N=C(N)NCCCC[C@H]1NC(=O)N([C@H](CC2CCCCC2)C(=O)N2CCC3(CCc4ccccc43)CC2)C1=O` returned an IC50 in assay [2] of 300 nM.

As to `N=C(N)NCCC[C@H]1NC(=O)N([C@@H](C(=O)N2CCC3(CCc4ccccc43)CC2)C(c2ccccc2)c2ccccc2)C1=O`, the inhibition in assay [5] was found to be 75%.

`CC(O)[C@H](C(=O)N1CCC2(CCc3ccccc32)CC1)N1C(=O)N[C@H](CCCN=C(N)N)C1=O` (stereo partly specified): the inhibition stood at 14% in assay [3] and 57% in assay [6].

`N=C(N)NCCC[C@H]1NC(=O)N([C@H](CC2CCCCC2)C(=O)N2CCC3(CC2)CC(=O)c2ccccc23)C1=O`: the IC50 in assay [2] came to 1500 nM. For the same compound, the inhibition in assay [3] was 58%.

In assay [2], `N=C(N)NCCC[C@H]1NC(=O)N([C@H](Cc2ccc(O)cc2)C(=O)N2CCC3(CCc4ccccc43)CC2)C1=O` displayed an IC50 of 4000 nM.

In turn, `CSCC[C@H](C(=O)N1CCC2(CCc3ccccc32)CC1)N1C(=O)N[C@H](CCCN=C(N)N)C1=O` had an IC50 in assay [2] of 3400 nM. The compound also yielded an inhibition in assay [3] of 57%.

With `CC[C@@H](C)[C@H](C(=O)N1CCC2(CCc3ccccc32)CC1)N1C(=O)N[C@H](CCCN=C(N)N)C1=O`, the Release in assay [4] was determined as 31%. The values for the IC50 in assay [1] and in assay [2] were 1200 nM and 200 nM, respectively.

Turning to `NC(=O)NCCC[C@H]1NC(=O)N([C@H](CC2CCCCC2)C(=O)N2CCC3(CCc4ccccc43)CC2)C1=O`, the inhibition in assay [6] was determined as 58%.

Turning to `N=C(N)NCCC[C@H]1NC(=O)N([C@H](Cc2ccc3ccccc3c2)C(=O)N2CCC3(CCc4ccccc43)CC2)C1=O`, in assay [2], the IC50 is 2000 nM. Moreover, in assay [3], the inhibition turned out to be 67%.

Take `N=C(N)NCCC[C@H]1NC(=O)N([C@H](CC(=O)O)C(=O)N2CCC3(CCc4ccccc43)CC2)C1=O`: the inhibition in assay [3] worked out at 0%.

Regarding `CCC[C@H](C(=O)N1CCC2(CCc3ccccc32)CC1)N1C(=O)N[C@H](CCCN=C(N)N)C1=O`, the IC50 in assay [2] is 3000 nM. The inhibition in assay [3] was determined as 63%.

With `CC(=O)OCC1(c2ccccc2)CCN(C(=O)[C@@H](CC2CCCCC2)N2C(=O)N[C@H](CCCN=C(N)N)C2=O)CC1`, the inhibition was determined as 35% in assay [3] and 48% in assay [6].

Take `NCCCC[C@H]1NC(=O)N([C@H](CC2CCCCC2)C(=O)N2CCC3(CCc4ccccc43)CC2)C1=O`: in assay [2], the IC50 is 4000 nM. In other words, the single-digit micromolar range.

The compound `Nc1ccc(C[C@H]2NC(=O)N([C@H](CC3CCCCC3)C(=O)N3CCC4(CCc5ccccc54)CC3)C2=O)cc1` gave an inhibition in assay [6] of 75%.

Turning to `Cc1ccccc1N1CCN(C(=O)[C@@H](CC2CCCCC2)N2C(=O)N[C@H](CCCN=C(N)N)C2=O)CC1`, in assay [4], the Release turned out to be 76%. Further, the IC50 in assay [1] was 350 nM; in assay [2], 40 nM.

`CC(C)[C@H](C(=O)N1CCC2(CCc3ccccc32)CC1)N1C(=O)N[C@H](CCCN=C(N)N)C1=O` showed an IC50 in assay [2] of 1200 nM. This compound showed an inhibition in assay [3] of 70%.

On to `CC(C)C[C@H](C(=O)N1CCC2(CCc3ccccc32)CC1)N1C(=O)N[C@H](CCCN=C(N)N)C1=O`, for which the Release in assay [4] is 10%. The values for the IC50 in assay [1] and in assay [2] were 2000 nM and 450 nM, respectively.

With `CCCC[C@H](C(=O)N1CCC2(CCc3ccccc32)CC1)N1C(=O)N[C@H](CCCN=C(N)N)C1=O`, the inhibition in assay [3] worked out at 20%; in assay [7] it was 54%.

With `N=C(N)NCCC[C@H]1NC(=O)N([C@H](Cc2ccccc2)C(=O)N2CCC3(CCc4ccccc43)CC2)C1=O`, the IC50 came to 8000 nM in assay [1] and 800 nM in assay [2].

In assay [2], `N=C(N)NCCC[C@H]1NC(=O)N([C@H](CC2CCCCC2)C(=O)N2CCN(c3ccccc3)CC2)C1=O` displayed an IC50 of 1000 nM. In addition, the inhibition in assay [3] stood at 66%.

On to `N=C(N)NCCC[C@H]1NC(=O)N([C@H](CC2CCCCC2)C(=O)N2CCC3(CCc4ccccc43)CC2)C1=O`, for which the Release in assay [4] is 86%. In addition, the IC50 in assay [1] turned out to be 300 nM; in assay [2], 25 nM.

`Cc1cccc(C)c1N1CCN(C(=O)[C@@H](CC2CCCCC2)N2C(=O)N[C@H](CCCN=C(N)N)C2=O)CC1` showed a Release in assay [4] of 78%. Moreover, the IC50 in assay [1] is 220 nM; in assay [2] it was 40 nM.

Consider `N=C(N)NCCC[C@H]1NC(=O)N([C@@H](Cc2ccccc2)C(=O)N2CCC3(CCc4ccccc43)CC2)C1=O`, for which the inhibition in assay [3] turned out to be 3%; in assay [6], 15%.

In assay [2], `N=C(N)NCCC[C@H]1NC(=O)N([C@H](Cc2ccc(F)cc2)C(=O)N2CCC3(CCc4ccccc43)CC2)C1=O` returned an IC50 of 230 nM. In addition, in assay [3], the inhibition worked out at 75%.

Regarding `N=C(N)NCCC[C@H]1NC(=O)N(C(Cc2ccccc2)C(=O)N2CCC3(CCc4ccccc43)CC2)C1=O` (stereo partly specified), the inhibition in assay [3] was found to be 60%; in assay [6], 78%.

As to `N=C(N)NCCC[C@H]1NC(=O)N([C@H](Cc2cccc3ccccc23)C(=O)N2CCC3(CCc4ccccc43)CC2)C1=O`, in assay [2], the IC50 was found to be 11000 nM. Also, the inhibition in assay [3] worked out at 77%.

Take `N=C(N)NCCC[C@H]1NC(=O)N([C@H](CC2CCCCC2)C(=O)N2CCC(c3ccccc3)CC2)C1=O`: the Release in assay [4] is 88%. In addition, the IC50 is 400 nM in assay [1] and 30 nM in assay [2].

In turn, `CC(C)c1ccccc1N1CCN(C(=O)[C@@H](CC2CCCCC2)N2C(=O)N[C@H](CCCN=C(N)N)C2=O)CC1` showed an inhibition in assay [6] of 14%.

For `N=C(N)NCCC[C@H]1NC(=O)N([C@H](CC2CCCCC2)C(=O)N2CCC3(C=Cc4ccccc43)CC2)C1=O`, the IC50 was found to be 1500 nM in assay [1] and 300 nM in assay [2].

In assay [2], `N=C(N)NCCC[C@H]1NC(=O)N(C(CCc2ccccc2)C(=O)N2CCC3(CCc4ccccc43)CC2)C1=O` (stereo partly specified) yielded an IC50 of 3000 nM. The compound further displayed an inhibition in assay [3] of 46%.

On to `N=C(N)NCCC[C@@H]1NC(=O)N([C@H](Cc2ccccc2)C(=O)N2CCC3(CCc4ccccc43)CC2)C1=O`, for which, in assay [2], the IC50 turned out to be 4000 nM. Moreover, the inhibition in assay [3] amounted to 39%.

As for `N=C(N)NCCC[C@H]1NC(=O)N([C@H](CC(=O)N2CCCCC2)C(=O)N2CCC3(CCc4ccccc43)CC2)C1=O`, the inhibition in assay [3] was determined as 26%; in assay [6] it was 52%.

As for `N=C(N)NCCC[C@H]1NC(=O)N([C@H](Cc2ccc(-c3ccccc3)cc2)C(=O)N2CCC3(CCc4ccccc43)CC2)C1=O`, the IC50 turned out to be 900 nM in assay [8] and 2300 nM in assay [1].
